pIC50, pKd: −log10 of the molar value.

Experiment [1] deals with T1, TYK2 (JH2domain-pseudokinase) (Homo sapiens, UniProt P29597).
T1 construct: TYK2 (JH2domain-pseudokinase)-tagged T7 phage strains were prepared in an E. coli host derived from the BL21 strain; made in house; host or cells: E. coli BL21-derived host (T7 phage) or HEK-293 cells
The experiment is described as follows: TYK2 JH2 domain binding assay (KINOMEscan). Here is the method: TYK2 (JH2domain-pseudokinase) KINOMEscan assay. For the assay, TYK2 (JH2domain-pseudokinase)-tagged T7 phage strains were prepared in an E. coli host derived from the BL21 strain.E. coli were grown to log-phase and infected with T7 phage and incubated with shaking at 32°C until lysis. The lysates were centrifuged and filtered to remove cell debris. The remaining TYK2 (JH2domain-pseudokinase) were produced in HEK-293 cells and subsequently tagged with DNA for qPCR detection. Streptavidin-coated magnetic beads were treated with biotinylated small molecule ligands for 30 minutes at room temperature to generate affinity resins for kinase assays. The liganded beads were blocked with excess biotin and washed with blocking buffer (SeaBlock (Pierce), 1% BSA, 0.05% Tween 20, 1 mM DTT) to remove unbound ligand and to reduce non-specific binding. Binding reactions were assembled by combining TYK2 (JH2domain-pseudokinase), liganded affinity beads, and test compounds in 1x binding buffer (20% SeaBlock, 0.17x PBS, 0.05% Tween 20, 6 mM DTT). Test compounds were prepared as 111X stocks in 100% DMSO. Kds were determined using an 11-point 3-fold compound dilution series with three DMSO control points. All compounds for Kd measurements are distributed by acoustic transfer (non-contact dispensing) in 100% DMSO. The compounds were then diluted directly into the assays such that the final concentration of DMSO was 0.9%. All reactions performed in polypropylene 384-well plate. Each was a final volume of 0.02 ml. The assay plates were incubated at room temperature with shaking for 1 hour and the affinity beads were washed with wash buffer (1x PBS, 0.05% Tween 20). The beads were then re-suspended in elution buffer (1x PBS, 0.05% Tween 20, 0.5 µM non-biotinylated affinity ligand) and incubated at room temperature with shaking for 30 minutes. The kinase concentration in the eluates was measured by qPCR. […]
An 11-point 3-fold serial dilution of each test compound was prepared in 100% DMSO at 100x final test concentration and subsequently diluted to 1x in the assay (final DMSO concentration = 1%). Most Kds were determined using a compound top concentration = 30,000 nM. If the initial Kd determined was < 0.5 nM (the lowest concentration tested), the measurement was repeated with a serial dilution starting at a lower top concentration.
Curves were fitted using a non-linear least square fit with the Levenberg-Marquardt algorithm. […] TABLE 1: Kd Affinities for Tyk2 JH2 Domain Binding Assay.

The test system of experiment [2] is STAT1/3 through TYK2/JAK1. Nature of the experiment: IFNa induced STAT phosphorylation in HEK293 cells (SIE-bla reporter gene). The format is cell-based. As to conditions: Homo sapiens, HEK293; HEK293T-sie-bla cells, IFNa at EC80, 4 hours; read-out: Inhibition of IFNa induced STAT phosphorylation HEK293 cells IC50. As for the experimental part:
Stimulation of HEK293T-sie-bla cells with interferon alpha (INFa) activates the signaling pathway of STAT1/3 through TYK2/JAK1. In this assay, measurement of the activity of the reporter gene […]-lactamase expression was used as the readout.
CellSensorTM SIE-bla HEK293T cell line were purchased from Thermo Fisher Scientific (ref. #K1649B) and cultured as specified by the provider. A number of 30.000 cells per well (40 µl) were plated in a 384-well plate (Corning ref.# 3712) and cultured overnight at 37°C with 5% CO2 in a complete Optimem media (ThermoFisher ref. #11058-021) containing 0.5% (v/v) heat inactivated dialyzed FBS (Life Technologies ref. #26400044), 10 µM non-essential aminoacids NEAA (Sigma ref. #M7145), 100 µM Sodium Pyruvate (Gibco ref. #11360-039) and 100 U/mL Penicillin (Sigma ref. #P0781). Compounds were initially dissolved in 100% DMSO. Compound curves were then prepared using a 1/5 serial dilution (10 dilutions). The dilutions were directly diluted in complete Optimem media at 40-fold their final concentration in 20% DMSO. IFNa initial solution (R&D systems ref. #11100-1) was prepared at 10-fold its EC80 in complete Optimem media. Compounds and IFNa were added simultaneously to the wells with cells and incubated during 4 hours at 37°C (the final DMSO was 0.1%). The […]-lactamase substrate (LifeTechnologies ref.#K1138) was prepared at 6-fold its final concentration as specified by the provider. Then 10 µL of the mixture was added to the wells to stop the stimulation. Plate was left in the dark over-night. Then a FRET reading was performed on an appropriate plate reader.
All experiments were analysed using an ExcelFit template and the four-parameter log equation. […] TABLE 2: IC50 Inhibitions of IFNa induced STAT phosphorylation in HEK293 cells

T1 sequence (P29597 589-875 limits assumed): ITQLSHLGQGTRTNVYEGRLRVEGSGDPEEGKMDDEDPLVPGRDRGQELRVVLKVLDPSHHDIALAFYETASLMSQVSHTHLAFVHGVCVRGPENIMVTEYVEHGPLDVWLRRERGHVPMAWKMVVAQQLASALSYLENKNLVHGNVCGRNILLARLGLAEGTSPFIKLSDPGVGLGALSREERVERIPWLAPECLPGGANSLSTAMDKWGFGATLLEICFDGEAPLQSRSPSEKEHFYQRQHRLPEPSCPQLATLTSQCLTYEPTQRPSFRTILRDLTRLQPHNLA

In general, pKd refers to the Kd on a negative log10 scale, so that one unit is a factor of ten. Read a high pKd as a low Kd. Usually pIC50 stands for the IC50 on a negative log10 scale, so that one unit is a factor of ten. In the case of `COc1c(Nc2cc(Nc3cc(C)nc(C)n3)ncn2)cccc1-c1nc(C)nn1C` [Example 40, N6-(2,6-dimethylpyrimidin-4-yl)-N4-[3-(2,5-dimethyl-1,2,4-triazol-3-yl)-2-methoxy-phenyl]pyrimidine-4,6-diamine], the pKd in experiment [1] was 8.00 to 9.00. In experiment [2], the pIC50 was 6.00 to 7.00.

As to `COc1c(Nc2cc(Nc3cc(C)nc(C)n3)ncn2)cccc1-c1nnn(C)n1` [Example 41, N4-(2,6-dimethylpyrimidin-4-yl)-N6-[2-methoxy-3-(2-methyltetrazol-5-yl)phenyl]pyrimidine-4,6-diamine], the pKd in experiment [1] was above 9.70. Moreover, in experiment [2], the pIC50 was 7.00 to 8.00.

`COc1c(Nc2cc(Nc3cc(C)nc(C)n3)ncn2)cccc1-c1ccnnc1` [Example 42, N6-(2,6-dimethylpyrimidin-4-yl)-N4-(2-methoxy-3-pyridazin-4-yl-phenyl)pyrimidine-4,6-diamine]: the pKd in experiment [1] is 8.00 to 9.00. Also, in experiment [2], the pIC50 was below 6.00.

`COc1c(Nc2cc(Nc3cc(C)nc(C)n3)ncn2)cccc1-c1ncn(C2COC2)n1` [Example 43, N4-(2,6-dimethylpyrimidin-4-yl)-N6-[2-methoxy-3-[1-(oxetan-3-yl)-1,2,4-triazol-3-yl]phenyl]pyrimidine-4,6-diamine] gave a pKd in experiment [1] of 9.00 to 9.70. For the same compound, in experiment [2], the pIC50 was 6.00 to 7.00.

Take `COCCn1cnc(-c2cccc(Nc3cc(Nc4cc(C)nc(C)n4)ncn3)c2OC)n1` [Example 44, N6-(2,6-dimethylpyrimidin-4-yl)-N4-[2-methoxy-3-[1-(2-methoxyethyl)-1,2,4-triazol-3-yl]phenyl]pyrimidine-4,6-diamine]: the pKd in experiment [1] was 9.00 to 9.70. In addition, the pIC50 in experiment [2] was 7.00 to 8.00.

In experiment [1], `CCn1cnc(-c2cccc(Nc3cc(Nc4cc(C)nc(C)n4)ncn3)c2OC)n1` [Example 46, N4-(2,6-dimethylpyrimidin-4-yl)-N6-[3-(1-ethyl-1,2,4-triazol-3-yl)-2-methoxy-phenyl]pyrimidine-4,6-diamine] gave a pKd above 9.70. Besides, the negative-log IC50 (pIC50) in experiment [2] is 7.00 to 8.00.

For the compound `COc1c(Nc2cc(Nc3cc(C)nc(C)n3)ncn2)cccc1-c1ncn(CC2CCCCO2)n1` (stereo not shown) [Example 47, N4-(2,6-dimethylpyrimidin-4-yl)-N6-[2-methoxy-3-[1-(tetrahydropyran-2-ylmethyl)-1,2,4-triazol-3-yl]phenyl]pyrimidine-4,6-diamine], the pKd in experiment [1] was 9.00 to 9.70. In addition, in experiment [2], the pIC50 was 7.00 to 8.00.

In the case of `COc1c(Nc2cc(Nc3cc(C)nc(C)n3)ncn2)cccc1-c1nc(C)nn1C1COC1` [Example 48, N4-(2,6-dimethylpyrimidin-4-yl)-N6-[2-methoxy-3-[5-methyl-2-(oxetan-3-yl)-1,2,4-triazol-3-yl]phenyl]pyrimidine-4,6-diamine], in experiment [1], the pKd is below 8.00. In addition, in experiment [2], the pIC50 was below 6.00.

Consider `COc1c(Nc2cc(Nc3cc(C)nc(C)n3)ncn2)cccc1-c1nc(C)n(C2COC2)n1` [Example 49, N4-(2,6-dimethylpyrimidin-4-yl)-N6-[2-methoxy-3-[5-methyl-1-(oxetan-3-yl)-1,2,4-triazol-3-yl]phenyl]pyrimidine-4,6-diamine], for which the pKd in experiment [1] is 9.00 to 9.70. Moreover, the pIC50 in experiment [2] is below 6.00.

Compound `COc1c(Br)cccc1Nc1cc(Nc2cc(C)nc(C)n2)ncn1` [Example 50, N6-(3-bromo-2-methoxy-phenyl)-N4-(2,6-dimethylpyrimidin-4-yl)pyrimidine-4,6-diamine] had a pKd in experiment [1] of 8.00 to 9.00. In addition, in experiment [2], the pIC50 was 6.00 to 7.00.

In experiment [1], `COc1c(Nc2cc(Nc3cc(C)nc(C)n3)ncn2)cccc1-c1ncn(CC2COC2)n1` [Example 51, N6-(2,6-dimethylpyrimidin-4-yl)-N4-[2-methoxy-3-[1-(oxetan-3-ylmethyl)-1,2,4-triazol-3-yl]phenyl]pyrimidine-4,6-diamine] gave a pKd above 9.70. Further, the pIC50 in experiment [2] is 7.00 to 8.00.

In experiment [1], `COc1c(Nc2cc(Nc3cc(C)nc(C)n3)ncn2)cccc1-c1ncn(CC2CCOCC2)n1` [Example 52, N4-(2,6-dimethylpyrimidin-4-yl)-N6-[2-methoxy-3-[1-(tetrahydropyran-4-ylmethyl)-1,2,4-triazol-3-yl]phenyl]pyrimidine-4,6-diamine] gave a pKd of 9.00 to 9.70. For the same compound, the pIC50 in experiment [2] is 6.00 to 7.00.

As for `COc1c(Nc2cc(Nc3cc(C)nc(C)n3)ncn2)cccc1-c1ncn(CC2CC(F)(F)C2)n1` [Example 53, N6-[3-[1-[(3,3-difluorocyclobutyl)methyl]-1,2,4-triazol-3-yl]-2-methoxyphenyl]-N4-(2,6-dimethylpyrimidin-4-yl)pyrimidine-4,6-diamine], in experiment [1], the pKd was 9.00 to 9.70. Moreover, in experiment [2], the pIC50 was 6.00 to 7.00.

`COc1c(Nc2cc(Nc3cc(C)nc(C)n3)ncn2)cccc1-c1ncn(C2CC2(F)F)n1` (stereo not shown) [Example 55, N6-[3-[1-(2,2-difluorocyclopropyl)-1,2,4-triazol-3-yl]-2-methoxy-phenyl]-N4-(2,6-dimethylpyrimidin-4-yl)pyrimidine-4,6-diamine]: the pKd in experiment [1] is 9.00 to 9.70. In addition, in experiment [2], the pIC50 was 7.00 to 8.00.

In turn, `Cc1cc(Nc2cc(Nc3nccc(C)c3N(C)S(C)(=O)=O)ncn2)nc(C)n1` [Example 61, N-(2-((6-((2,6-dimethylpyrimidin-4-yl)amino)pyrimidin-4-yl)amino)-4-methylpyridin-3-yl)-N-methylmethanesulfonamide] gave a pKd in experiment [1] of 8.00 to 9.00. Further, in experiment [2], the pIC50 is 6.00 to 7.00.

In the case of `COc1c(Nc2cc(Nc3cc(C)nc(C)n3)ncn2)cccc1-c1noc(CN2CCOCC2)n1` [Example 62, N6-(2,6-dimethylpyrimidin-4-yl)-N4-[2-methoxy-3-[5-(morpholinomethyl)-1,2,4-oxadiazol-3-yl]phenyl]pyrimidine-4,6-diamine], the pKd in experiment [1] was above 9.70. The pIC50 in experiment [2] is 7.00 to 8.00.

The compound `COc1c(Nc2cc(Nc3cc(C)nc(C)n3)ncn2)ccc(C)c1-c1ncn(C)n1` [Example 63, 6-N-(2,6-dimethylpyrimidin-4-yl)-4-N-[2-methoxy-4-methyl-3-(1-methyl-1,2,4-triazol-3-yl)phenyl]pyrimidine-4,6-diamine] had a pKd in experiment [1] of 9.00 to 9.70. Besides, in experiment [2], the pIC50 is 7.00 to 8.00.

`COc1c(Nc2cc(Nc3cc(C)nc(C)n3)ncn2)ccc(F)c1-c1ncn(C)n1` [Example 64, N4-(2,6-dimethylpyrimidin-4-yl)-N6-[4-fluoro-2-methoxy-3-(1-methyl-1,2,4-triazol-3-yl)phenyl]pyrimidine-4,6-diamine] showed a pKd in experiment [1] of 9.00 to 9.70. Further, the pIC50 in experiment [2] was 6.00 to 7.00.

As to `COc1c(Nc2cc(Nc3ccc(F)cn3)ncn2)cccc1-c1ncn(C)n1` [Example 65, N4-(5-fluoro-2-pyridyl)-N6-[2-methoxy-3-(1-methyl-1,2,4-triazol-3-yl)phenyl]pyrimidine-4,6-diamine], the pKd in experiment [1] was 9.00 to 9.70. In addition, the pIC50 in experiment [2] was 7.00 to 8.00.

`Cc1cc(Nc2cc(Nc3ccccc3CS(C)(=O)=O)ncn2)nc(C)n1` [Example 66, N4-(2,6-dimethylpyrimidin-4-yl)-N6-[2-(methylsulfonylmethyl)phenyl]pyrimidine-4,6-diamine]: the pKd in experiment [1] is 9.00 to 9.70. Moreover, the pIC50 in experiment [2] was 6.00 to 7.00.

The values above are taken from patent publication EP4206196A1, “PYRIMIDINE SUBSTITUTED DERIVATIVES AS TYK2 INHIBITORS” (Almirall S.A., priority 2021, dated 2023).
